According to ChEMBL document CHEMBL4630908 (2021):
Activity calls are given as the source filed them. The rule behind the calls is not given here.

Tests used:
[1] = target: T1, Bromodomain-containing protein 2 (Homo sapiens, UniProt P25440); test: BRD2(1) DiscoverX BROMOscan
Target sequence in this assay (P25440 whole entry, the tested form may be a part): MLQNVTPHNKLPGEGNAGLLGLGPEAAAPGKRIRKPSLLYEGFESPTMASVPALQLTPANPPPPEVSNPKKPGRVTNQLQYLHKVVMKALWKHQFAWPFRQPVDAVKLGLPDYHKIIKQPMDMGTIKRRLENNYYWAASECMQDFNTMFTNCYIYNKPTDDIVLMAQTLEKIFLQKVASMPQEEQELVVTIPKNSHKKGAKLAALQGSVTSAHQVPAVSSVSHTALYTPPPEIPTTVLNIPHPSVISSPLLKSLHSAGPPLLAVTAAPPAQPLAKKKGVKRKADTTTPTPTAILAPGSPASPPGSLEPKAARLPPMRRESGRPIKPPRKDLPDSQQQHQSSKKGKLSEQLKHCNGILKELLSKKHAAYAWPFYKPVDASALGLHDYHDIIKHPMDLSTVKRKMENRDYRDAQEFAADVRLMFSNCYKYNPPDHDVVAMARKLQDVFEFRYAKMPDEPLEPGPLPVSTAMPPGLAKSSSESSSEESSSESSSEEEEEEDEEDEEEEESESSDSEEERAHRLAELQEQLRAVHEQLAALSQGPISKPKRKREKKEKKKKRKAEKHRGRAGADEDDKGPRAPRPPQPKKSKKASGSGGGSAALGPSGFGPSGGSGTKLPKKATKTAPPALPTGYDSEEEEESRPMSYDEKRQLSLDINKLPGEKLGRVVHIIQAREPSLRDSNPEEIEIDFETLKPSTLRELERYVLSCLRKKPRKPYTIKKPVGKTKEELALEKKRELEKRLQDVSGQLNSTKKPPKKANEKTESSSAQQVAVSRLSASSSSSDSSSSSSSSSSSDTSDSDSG

[2] = target: Bromodomain adjacent to zinc finger domain protein 2B (Homo sapiens, UniProt Q9UIF8); test: BAZ2B DiscoverX BROMOscan
[3] = target: T2, Bromodomain testis-specific protein (Homo sapiens, UniProt Q58F21); test: BET mutant TR-FRET assay (BRDT BD1)
[4] = target: 5-hydroxytryptamine receptor 2C (Homo sapiens) (UniProt P28335); conditions: Compound concentration 10.0 uM
[5] = target: Delta-type opioid receptor (Homo sapiens) (UniProt P41143); conditions: Compound concentration 10.0 uM
[6] = target: 5-hydroxytryptamine receptor 2C (Homo sapiens) (UniProt P28335); test: (§1) Cross screening panel; conditions: filed as antagonist
[7] = target: 5-hydroxytryptamine receptor 2A (Homo sapiens, UniProt P28223); test: as §1; conditions: filed as antagonist
[8] = target: Muscarinic acetylcholine receptor M5 (Homo sapiens) (UniProt P08912); conditions: Compound concentration 10.0 uM
[9] = target: Chromatin remodeling regulator CECR2 (Homo sapiens, UniProt Q9BXF3); test: CECR2 DiscoverX BROMOscan
[10] = target: SWI/SNF-related matrix-associated actin-dependent regulator of chromatin subfamily A member 4 (Homo sapiens, UniProt P51532); test: SMARCA4 DiscoverX BROMOscan
[11] = target: Bromodomain and WD repeat-containing protein 1 (Homo sapiens, UniProt Q9NSI6); test: WDR9(2) DiscoverX BROMOscan
[12] = target: Transcription intermediary factor 1-alpha (Homo sapiens, UniProt O15164); test: TRIM24(BROMO.) DiscoverX BROMOscan
[13] = target: ATPase family AAA domain-containing protein 2B (Homo sapiens, UniProt Q9ULI0); test: ATAD2B DiscoverX BROMOscan
[14] = target: Protein polybromo-1 (Homo sapiens, UniProt Q86U86); test: PBRM1(5) DiscoverX BROMOscan
[15] = target: 5-hydroxytryptamine receptor 1D (Homo sapiens, UniProt P28221); test: GPCRScan assay: inhibition of 5-HT1D; parameters: radioligand conc. used [nm] 1.0 – 2.0, parental cells HEKT
[16] = target: T2, Bromodomain testis-specific protein; test: BRDT(2) DiscoverX BROMOscan
[17] = target: 5-hydroxytryptamine receptor 1A (Homo sapiens) (UniProt P08908); conditions: Compound concentration 10.0 uM
[18] = target: Sodium-dependent dopamine transporter (Homo sapiens) (UniProt Q01959); conditions: Compound concentration 10.0 uM
[19] = target: D(1B) dopamine receptor (Homo sapiens) (UniProt P21918); conditions: Compound concentration 10.0 uM
[20] = target: Histamine H4 receptor (Homo sapiens) (UniProt Q9H3N8); conditions: Compound concentration 10.0 uM
[21] = target: T2, Bromodomain testis-specific protein; test: BRDT(1,2) DiscoverX BROMOscan
[22] = target: T3, Kappa-type opioid receptor (Homo sapiens, UniProt P41145); conditions: Compound concentration 10.0 uM
[23] = target: T4, Bromodomain-containing protein 3 (Homo sapiens, UniProt Q15059); test: BRD3 BD2 Bromoscan (DiscoverX)
[24] = target: Muscarinic acetylcholine receptor M3 (Homo sapiens) (UniProt P20309); conditions: Compound concentration 10.0 uM
[25] = target: Sodium-dependent noradrenaline transporter (Homo sapiens) (UniProt P23975); conditions: Compound concentration 10.0 uM
[26] = target: T2, Bromodomain testis-specific protein; test: BRDT(1) DiscoverX BROMOscan
[27] = target: Transcription initiation factor TFIID subunit 1-like (Homo sapiens, UniProt Q8IZX4); test: TAF1L(2) DiscoverX BROMOscan
[28] = target: Histone acetyltransferase KAT2B (Homo sapiens, UniProt Q92831); test: PCAF DiscoverX BROMOscan
[29] = target: Bromodomain-containing protein 1 (Homo sapiens, UniProt O95696); test: BRD1 DiscoverX BROMOscan
[30] = target: Beta-1 adrenergic receptor (Homo sapiens) (UniProt P08588); conditions: Compound concentration 10.0 uM
[31] = target: SWI/SNF-related matrix-associated actin-dependent regulator of chromatin subfamily A member 2 (Homo sapiens, UniProt P51531); test: SMARCA2 DiscoverX BROMOscan
[32] = target: D(4) dopamine receptor (Homo sapiens) (UniProt P21917); conditions: Compound concentration 10.0 uM
[33] = target: Muscarinic acetylcholine receptor M4 (Homo sapiens) (UniProt P08173); conditions: Compound concentration 10.0 uM
[34] = target: T4, Bromodomain-containing protein 3; test: BRD3(1,2) DiscoverX BROMOscan
[35] = target: C-C motif chemokine 2 (Homo sapiens, UniProt P13500); test: In vitro inhibition of MCP-1 in Lipopolysaccharide-stimulated human whole blood; format: tissue-based
[36] = target: Bromodomain and PHD finger-containing protein 3 (Homo sapiens, UniProt Q9ULD4); test: BRPF3 DiscoverX BROMOscan
[37] = target: GABA-A receptor; anion channel (Rattus norvegicus) (UniProt O09028+P15431+P18506+P18508+P19969+P20236+P23574+P23576+P28471+P28473+P30191+P62813+P63079+P63138+Q91ZM7+Q9ES14); conditions: Compound concentration 10.0 uM
[38] = target: Potassium voltage-gated channel subfamily A member 5 (Homo sapiens, UniProt P22460); test: as §1
[39] = target: T3, Kappa-type opioid receptor; test: as §1
[40] = target: Aryl hydrocarbon receptor (Homo sapiens, UniProt P35869); test: as §1
[41] = target: Nuclear receptor subfamily 1 group I member 2 (Homo sapiens, UniProt O75469); test: as §1
[42] = target: Acetylcholine receptor subunit alpha (Homo sapiens, UniProt P02708); test: as §1
[43] = target: 5-hydroxytryptamine receptor 3A (Homo sapiens, UniProt P46098); test: as §1
[44] = target: Alpha-1B adrenergic receptor (Homo sapiens, UniProt P35368); test: as §1
[45] = target: Voltage-dependent L-type calcium channel subunit alpha-1C (Homo sapiens, UniProt Q13936); test: as §1
[46] = target: Histamine H1 receptor (Homo sapiens, UniProt P35367); test: as §1
[47] = target: Aurora kinase B (Homo sapiens, UniProt Q96GD4); test: as §1
[48] = target: Bromodomain-containing protein 8 (Homo sapiens, UniProt Q9H0E9); test: BRD8(2) DiscoverX BROMOscan
[49] = target: Alpha-2B adrenergic receptor (Homo sapiens) (UniProt P18089); conditions: Compound concentration 10.0 uM
[50] = target: D(1A) dopamine receptor (Homo sapiens, UniProt P21728); conditions: Compound concentration 10.0 uM
[51] = target: T1, Bromodomain-containing protein 2; test: BRD2(2) DiscoverX BROMOscan
Target sequence in this assay (P25440 whole entry, the tested form may be a part): as above

[52] = target: T1, Bromodomain-containing protein 2; test: BET mutant TR-FRET assay (BRD2 BD1)

Sequence of 5-hydroxytryptamine receptor 2C (Homo sapiens) (P28335 whole entry): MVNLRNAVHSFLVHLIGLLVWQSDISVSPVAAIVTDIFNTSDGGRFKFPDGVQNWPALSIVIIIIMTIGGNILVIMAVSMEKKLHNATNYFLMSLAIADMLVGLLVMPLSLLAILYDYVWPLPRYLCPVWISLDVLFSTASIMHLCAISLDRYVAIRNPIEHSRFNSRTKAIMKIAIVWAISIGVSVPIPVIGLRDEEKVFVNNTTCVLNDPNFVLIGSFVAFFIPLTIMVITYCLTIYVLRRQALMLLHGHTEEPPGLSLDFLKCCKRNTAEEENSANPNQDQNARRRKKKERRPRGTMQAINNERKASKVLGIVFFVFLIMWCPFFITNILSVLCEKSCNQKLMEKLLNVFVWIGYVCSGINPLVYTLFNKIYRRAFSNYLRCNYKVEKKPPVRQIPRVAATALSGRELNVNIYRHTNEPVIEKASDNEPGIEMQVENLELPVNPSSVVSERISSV
T4 sequence (Q15059 whole entry): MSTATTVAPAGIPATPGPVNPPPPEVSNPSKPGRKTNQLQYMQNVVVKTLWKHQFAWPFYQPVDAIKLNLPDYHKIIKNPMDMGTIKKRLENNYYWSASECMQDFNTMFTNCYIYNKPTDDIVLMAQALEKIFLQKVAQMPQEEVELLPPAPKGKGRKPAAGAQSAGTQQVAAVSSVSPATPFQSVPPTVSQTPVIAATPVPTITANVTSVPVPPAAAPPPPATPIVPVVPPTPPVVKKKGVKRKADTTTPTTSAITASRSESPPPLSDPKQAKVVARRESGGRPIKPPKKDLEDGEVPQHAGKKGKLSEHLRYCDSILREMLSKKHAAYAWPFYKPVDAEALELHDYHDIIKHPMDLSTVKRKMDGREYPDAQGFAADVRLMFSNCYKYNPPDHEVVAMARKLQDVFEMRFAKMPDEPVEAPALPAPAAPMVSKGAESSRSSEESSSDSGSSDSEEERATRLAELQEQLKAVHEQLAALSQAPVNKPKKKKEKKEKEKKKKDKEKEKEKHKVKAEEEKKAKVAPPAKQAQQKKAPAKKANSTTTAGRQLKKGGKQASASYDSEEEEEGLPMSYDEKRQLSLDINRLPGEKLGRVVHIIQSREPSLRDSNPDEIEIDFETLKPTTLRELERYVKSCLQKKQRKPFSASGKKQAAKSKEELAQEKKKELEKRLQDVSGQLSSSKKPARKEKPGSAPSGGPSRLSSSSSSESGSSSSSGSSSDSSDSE
T3 sequence (P41145 whole entry): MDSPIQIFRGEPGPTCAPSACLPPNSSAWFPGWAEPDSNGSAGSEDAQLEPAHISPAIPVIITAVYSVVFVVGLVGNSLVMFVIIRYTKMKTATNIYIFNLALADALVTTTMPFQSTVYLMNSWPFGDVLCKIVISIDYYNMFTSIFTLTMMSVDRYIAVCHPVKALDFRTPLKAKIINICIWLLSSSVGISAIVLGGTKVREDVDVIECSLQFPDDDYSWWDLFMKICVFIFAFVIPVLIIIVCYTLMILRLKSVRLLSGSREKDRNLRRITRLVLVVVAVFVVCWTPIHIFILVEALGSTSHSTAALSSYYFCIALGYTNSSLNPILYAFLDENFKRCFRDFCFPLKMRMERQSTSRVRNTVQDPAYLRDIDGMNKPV
Sequence of 5-hydroxytryptamine receptor 3A (P46098 whole entry): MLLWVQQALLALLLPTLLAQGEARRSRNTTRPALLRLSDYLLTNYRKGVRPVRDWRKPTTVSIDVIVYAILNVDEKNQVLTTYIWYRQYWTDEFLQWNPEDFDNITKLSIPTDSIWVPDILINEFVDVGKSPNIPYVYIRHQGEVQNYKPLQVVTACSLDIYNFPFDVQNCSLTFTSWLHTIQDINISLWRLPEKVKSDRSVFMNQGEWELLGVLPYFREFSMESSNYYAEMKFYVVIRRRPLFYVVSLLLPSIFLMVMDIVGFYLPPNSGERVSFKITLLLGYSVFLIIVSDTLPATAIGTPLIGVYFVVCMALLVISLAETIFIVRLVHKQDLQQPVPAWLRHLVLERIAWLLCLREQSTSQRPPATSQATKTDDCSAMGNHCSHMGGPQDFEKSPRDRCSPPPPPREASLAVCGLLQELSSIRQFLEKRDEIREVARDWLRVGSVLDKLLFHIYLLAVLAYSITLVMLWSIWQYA
Sequence of Acetylcholine receptor subunit alpha (P02708 whole entry): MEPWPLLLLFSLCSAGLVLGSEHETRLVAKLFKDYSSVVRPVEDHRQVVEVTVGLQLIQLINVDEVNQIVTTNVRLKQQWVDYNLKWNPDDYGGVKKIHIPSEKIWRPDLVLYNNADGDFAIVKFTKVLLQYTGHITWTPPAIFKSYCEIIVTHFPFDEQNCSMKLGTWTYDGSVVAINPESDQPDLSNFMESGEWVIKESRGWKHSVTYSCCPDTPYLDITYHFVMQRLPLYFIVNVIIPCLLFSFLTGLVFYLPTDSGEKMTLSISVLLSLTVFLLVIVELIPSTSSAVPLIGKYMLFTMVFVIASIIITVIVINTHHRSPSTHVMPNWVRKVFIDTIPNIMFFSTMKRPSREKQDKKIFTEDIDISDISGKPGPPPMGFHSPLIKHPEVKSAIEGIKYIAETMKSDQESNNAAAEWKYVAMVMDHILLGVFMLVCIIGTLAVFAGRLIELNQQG
Sequence of Delta-type opioid receptor (Homo sapiens) (P41143 whole entry): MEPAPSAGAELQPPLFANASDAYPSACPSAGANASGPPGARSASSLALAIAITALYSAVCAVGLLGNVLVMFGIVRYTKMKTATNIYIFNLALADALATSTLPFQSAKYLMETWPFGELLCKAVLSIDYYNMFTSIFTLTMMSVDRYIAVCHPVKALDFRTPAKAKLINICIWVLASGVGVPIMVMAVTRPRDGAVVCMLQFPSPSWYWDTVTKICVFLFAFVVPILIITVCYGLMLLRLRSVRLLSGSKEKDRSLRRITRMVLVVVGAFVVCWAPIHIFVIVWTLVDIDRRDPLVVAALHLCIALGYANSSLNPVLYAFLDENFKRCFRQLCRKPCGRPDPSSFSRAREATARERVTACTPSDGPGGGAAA
Sequence of Alpha-1B adrenergic receptor (P35368 whole entry): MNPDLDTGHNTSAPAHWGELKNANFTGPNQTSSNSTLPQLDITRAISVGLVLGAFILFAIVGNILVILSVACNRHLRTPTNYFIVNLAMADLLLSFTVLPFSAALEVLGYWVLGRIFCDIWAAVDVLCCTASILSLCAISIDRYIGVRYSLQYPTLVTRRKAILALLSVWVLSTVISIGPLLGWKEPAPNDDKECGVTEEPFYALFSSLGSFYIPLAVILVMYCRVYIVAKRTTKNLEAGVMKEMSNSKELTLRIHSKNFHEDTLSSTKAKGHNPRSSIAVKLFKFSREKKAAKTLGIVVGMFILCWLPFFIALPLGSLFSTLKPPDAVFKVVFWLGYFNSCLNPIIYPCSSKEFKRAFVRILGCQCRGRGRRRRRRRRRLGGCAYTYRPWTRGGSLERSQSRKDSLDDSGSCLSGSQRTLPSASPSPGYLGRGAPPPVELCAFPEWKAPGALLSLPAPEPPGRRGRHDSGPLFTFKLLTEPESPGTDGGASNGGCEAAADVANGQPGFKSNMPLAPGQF
Sequence of 5-hydroxytryptamine receptor 2A (P28223 whole entry): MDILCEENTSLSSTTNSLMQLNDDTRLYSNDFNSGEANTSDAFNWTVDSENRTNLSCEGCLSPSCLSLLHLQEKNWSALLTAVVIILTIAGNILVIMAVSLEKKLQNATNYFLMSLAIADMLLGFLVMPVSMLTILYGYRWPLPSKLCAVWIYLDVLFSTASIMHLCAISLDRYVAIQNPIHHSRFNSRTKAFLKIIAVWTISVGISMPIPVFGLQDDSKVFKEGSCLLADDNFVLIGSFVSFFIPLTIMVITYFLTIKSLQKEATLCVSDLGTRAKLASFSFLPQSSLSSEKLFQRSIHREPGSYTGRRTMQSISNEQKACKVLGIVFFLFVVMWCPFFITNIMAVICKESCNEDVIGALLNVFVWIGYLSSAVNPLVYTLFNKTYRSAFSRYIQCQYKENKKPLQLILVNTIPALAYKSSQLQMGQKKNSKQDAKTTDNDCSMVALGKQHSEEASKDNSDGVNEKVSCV
Sequence of C-C motif chemokine 2 (P13500 whole entry): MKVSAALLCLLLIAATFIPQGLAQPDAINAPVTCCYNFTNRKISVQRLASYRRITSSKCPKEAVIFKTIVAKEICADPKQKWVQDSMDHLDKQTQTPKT

`CC(=O)Nc1c(F)cc(C(=O)N[C@H]2CC[C@H](O)CC2)cc1O[C@@H](C)c1ccccc1` [GSK046] gave a Kd [1] of 1.62 µM, a Kd [2] of 30 µM and a pIC50 [3] of 4.3. For the same compound, the inhibition [4] was 14%, the inhibition [5] was 27.1% and the fpKi [6] was less than 4.6. The fpKi [7] was less than 4.6, the inhibition [8] was 0.93% and the Kd [9] was 30 µM. For the same compound, the Kd [10] was 30 µM, the Kd [11] was 30 µM and the Kd [12] was 30 µM. The Kd [13] was 30 µM, the Kd [14] was 30 µM and the Ki [15] was 3.44 µM. It also gave a Kd [16] of 0.015 µM, an inhibition [17] of -8.96% and an inhibition [18] of 3.3%. For the same compound, the inhibition [19] was 21.4%, the inhibition [20] was 20.1% and the Kd [21] was 0.036 µM. For the same compound, the inhibition [22] was 9.38%, the Kd [23] was 0.032 µM (active) and the inhibition [24] was 16%. For the same compound, the inhibition [25] was -0.92%, the Kd [26] was 2.45 µM and the Kd [27] was 30 µM. It also gave a Kd [28] of 30 µM, a Kd [29] of 30 µM and an inhibition [30] of -6.85%. The Kd [31] was 30 µM, the inhibition [32] was 36% and the inhibition [33] was -0.27%. The Kd [34] was 0.047 µM, the IC50 [35] was 0.316 µM (active) and the Kd [36] was 30 µM. For the same compound, the inhibition [37] was 0.61%, the IC50 [38] was greater than 50.1 µM and the EC50 [39] was greater than 100 µM. The EC50 [40] was greater than 100 µM, the EC50 [41] was greater than 50.1 µM and the EC50 [42] was greater than 50.1 µM. For the same compound, the IC50 [42] was 25.1 µM, the EC50 [43] was greater than 50.1 µM and the IC50 [43] was greater than 50.1 µM. For the same compound, the Ki [44] was greater than 25.1 µM, the IC50 [45] was 100 µM and the IC50 [46] was greater than 25.1 µM. The IC50 [47] was greater than 31.6 µM, the Kd [48] was 30 µM and the inhibition [49] was 3.38%. It also gave an inhibition [50] of 4.11%, a Kd [51] of 0.035 µM and a pIC50 [52] of 5.
